Here are results for two compounds from patent publication US20250041292A1, “METHODS FOR TREATING PRIMARY IMMUNODEFICIENCY” (X4 Pharmaceuticals, Inc., priority 2021, published 2025).

Data set [1] relates to WHIM mice. The settings on record: gavaged daily 100 mg/kg for 1 or 3 weeks; cited from earlier work.
The conditions of data set [2]: mouse, in vivo; cited from earlier work.
Data set [3] has as its system peripheral WBC counts and subsets. The data set can be described thus: Phase 1/2 trial of mavorixafor in combination with axitinib in advanced ccRCC: peripheral WBC counts. The settings on record: mavorixafor 400 mg QD + axitinib. It counts as in vivo, human.
For data set [4] the test system is unchanged. The data set can be described thus: Phase 1b trial of mavorixafor in combination with nivolumab in metastatic ccRCC: peripheral WBC counts. Format: in vivo, human.
Data set [5] shares this test system. The data set can be described thus: Phase 1b trial of mavorixafor in combination with ibrutinib in Waldenstrom's macroglobulinemia: peripheral WBC counts. To be noted: WM, interim analysis. It counts as in vivo, human.
Data set [6] relates to CVID B cells. The data set can be described thus: Chemotaxis assay: PBMCs from a patient with CVID due to NFKB1 mutation. Format: cell-based, human. As for the experimental part: PBMCs from patients or healthy donors were resuspended in chemotaxis buffer (RPMI 1640 media containing 20 mM HEPES, L-glutamine, and 0.5% BSA) at 2.0×10^6 cells/mL. […] Chemotaxis was assayed immediately after treatment with drug by placing 1.0×10^5 cells in 100 μL in the upper chamber of a Transwell 24-well plate separated by a 6.5 mm insert with 3 μm pores (Corning Life Sciences, Corning, NY, USA) from the lower chamber containing 600 μL of buffer with the indicated concentration of CXCL12. After incubation for 2.5 hours at 37° C. in a 5% CO2 incubator, the cells that migrated into the lower chamber were collected by centrifugation and resuspended in the assay buffer. Cells were blocked using Human TruStain FcX (BioLegend, Inc) for 10 minutes at RT, and subsequently B lymphocyte subtyping was performed (Alexa Fluor® 488 Mouse anti-human CD19 IgG1, κ, HIB19, BioLegend, Cat #302219). A fixed number of flow cytometry counting beads (Precision Count Beads; BioLegend) were added to each sample.
Both migrated cells and counting beads were counted by flow cytometry (CytoFLEX). Data were analyzed using FCS Express software, and the total number of migrated cells was calculated, according to the counted and total number of beads present in the sample. Results are presented as percentage of migrated B cells out of the total number of B cells placed in the chemotaxis chamber.

For data set [7], the system named is circulating white blood cells. The settings on record: 400-mg single-dose subject; cited from earlier work.
For data set [8], the system named is peripheral WBC counts and subsets. Briefly: Long-term extension of phase 2 trial of mavorixafor in WHIM syndrome: WBC counts and infection rate. To be noted: WHIM syndrome phase 2 extension.
Where [9] appears, read: after 6 months' treatment (n=20).
The mark [10] stands for this setting: after 6 months' (n=5) treatment.
The mark [11] stands for this setting: compared to screening values, after 4 weeks (n=8).
Where [12] appears, read: mavorixafor 300 or 400 mg QD, after 6 months' (n=5) treatment.

Entries after “also recorded” stand apart in the source; their conditions may differ.

In the case of `Cc1cccnc1[C@@H]1CCC[C@H](c2nc3cccc(N4CCN(C)CC4)n3c2CO)N1C`, the “IL-7 production and B cell development” value in data set [1] was “restored IL-7 production and B cell development”. The oral bioavailability entry in data set [2] was “orally bioavailable”.

For mavorixafor, the ALC in data set [3] (after 4 weeks (n=49)) is on record as 143 % of baseline; in data set [3] (setting [9]), 139 % of baseline; in data set [4] (after 4 weeks (n=9)) it was 141 % of baseline; in data set [4] (after 6 months (n=2)), 152 % of baseline; in data set [5] (setting [10]), 106 % of baseline; in data set [5] (setting [11]), 219 % of baseline. In addition, in data set [8] (setting [12]), the ALC is listed as 239 % of baseline. For the same compound, the AMC is listed as 182 % of baseline in data set [3] (after 4 weeks (n=49)); 166 % of baseline in data set [3] (setting [9]); 179 % of baseline in data set [4] (after 4 weeks (n=9)); 191 % of baseline in data set [4] (after 6 months (n=2)); 172 % of baseline in data set [5] (setting [10]); 186 % of baseline in data set [5] (setting [11]). In data set [8] (setting [12]), the AMC is 486 % of baseline. For the same compound, the ANC in data set [3] (after 4 weeks (n=49)) was 158 % of baseline; in data set [3] (setting [9]), 171 % of baseline; in data set [4] (after 4 weeks (n=9)), 143 % of baseline; in data set [4] (after 6 months (n=2)), 136 % of baseline; in data set [5] (setting [10]), 192 % of baseline; in data set [5] (setting [11]), 170 % of baseline. For the same compound, in data set [8] (setting [12]), the ANC is 652 % of baseline. For the same compound, the “total WBC count” value in data set [3] (after 4 weeks (n=49)) is 153 % of baseline; in data set [3] (setting [9]), 159 % of baseline; in data set [4] (after 4 weeks (n=9)), 146 % of baseline; in data set [4] (after 6 months (n=2)), 147 % of baseline; in data set [5] (setting [10]) it was 163 % of baseline; in data set [5] (setting [11]), 192 % of baseline. In addition, the “total WBC count” value in data set [8] (setting [12]) is 339 % of baseline. Further, the “mavorixafor concentration effectively neutralizing the chemotaxis” value in data set [6] (CVID B cells cultured with 10 nm CXCL12, FIG. 1C) was found to be 0.1 µM. Further, the “effect on enhanced chemotaxis toward CXCL12” value in data set [6] (CVID patient B cells, FIG. 1C) is on record as “dose-dependent normalization effect on chemotaxis; also recorded: normalizes enhanced chemotaxis”. Further, in data set [7], the “increase in the number of circulating white blood cells (Leukocytosis)” value is reported as 2.9 fold above baseline. In addition, the annualized infection rate in data set [8] (after 40 months, baseline 5.6 (SD±3.13) events) is 2.2 (SD±0.93) events.
